Results on four molecules are retold here after patent US7053064B2, “Compounds for the treatment of tobacco dependence and withdrawal” (The McLean Hospital Corporation, priority 2002, dated 2006).

Where two headings read alike, the source gives them in different places.

The conditions of data set [1]: cited from earlier work.
The conditions of data set [2]: cited from earlier work. This is another data set of the same source.
Another data set has as its system mammals. As to conditions: cited from earlier work.
The test system of a further data set is human subjects. In words: effects of citicoline on tobacco use (cigarettes smoked per day) versus placebo. As to conditions: compared to placebo, FIG. 1. It counts as in vivo. From the text: FIG. 1 is a graph of the effects of citicoline on tobacco use.
In a further data set the test system is humans. Conditions: cited from earlier work.
Setting [3] is: major excretion route, % of dose.

`C[N+](C)(C)CCOP(=O)(O)OP(=O)([O-])OC[C@H]1O[C@@H](n2ccc(N)nc2=O)[C@H](O)[C@@H]1O` [CDP-choline, cytidine 5′-diphosphocholine]: the “reported cases of overdoses” value in data set [1] (in vivo) was “no reported cases of overdoses”. In addition, the “toxicity symptoms on ingestion of large amounts” value in data set [1] (preclinical studies, salivation, lacrimation, urination, defecation, vomiting) is given as “common cholinergic symptoms”. Moreover, the “rest of the dose metabolized and retained in tissues” value in data set [2] (% of dose) was 83.9%. The “conversion into circulating metabolites” value in data set [2] (administered either orally or intravenously) is “rapidly converted into the two major circulating metabolites, choline and cytidine”. For the same molecule, in data set [2] (setting [3]), the excretion via lung is listed as 12.9% and the excretion via urine is given as 2.4%. In addition, in data set [2] (orally administered), the “CDP-choline and/or its metabolites absorbed” value is given as “more than 99%” and the excreted in feces result was “less than 1%”. In addition, the tolerability result with mammals (mammals) is “well tolerated”. The “usage of tobacco (number of cigarettes smoked per day)” value with human subjects is reported as “reduces the usage of tobacco”.

Take `O=c1ccn([C@@H]2O[C@H](CO)[C@@H](O)[C@H]2O)c(=O)[nH]1` [uridine]: the tolerability result in the data set with humans and in the data set with mammals (mammals) was “well tolerated” in each case.

`CC(=O)OC[C@H]1O[C@@H](n2ccc(=O)[nH]c2=O)[C@H](OC(C)=O)[C@@H]1OC(C)=O` [triacetyl uridine]: the tolerability entry with mammals (in vivo) is on record as “well tolerated”.

As for `CN(CC(=O)O)C(=N)N` [Creatine, creatine], the tolerability result in the data set on humans is on record as “well tolerated at relatively high doses”.
